Data: patent US20050090522A1 (priority 2001, published 2005)
Like-named read-outs stand apart in the source and are kept apart here.

What was measured:
HIV-1 = HIV-1 single-round infectious luciferase reporter virus (pseudotype) assay in HeLa CD4 CCR5 cells; assay type: cell-based
In short: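 Reporter pseudovirus produced in 293 cells infected HeLa cells expressing CD4/CCR5 at MOI ~0.01, with compound present at <10 μM final. Infection was quantified as luciferase luminescence after 72 h.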

HeLa cells = assay: Cytotoxicity assay in HeLa cells (MTT dye reduction, CC50); conditions: cytotoxicity; Yes = CC50 above 100 uM, No = not
In short: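 HeLa cells expressing CD4 and CCR5, grown in DMEM with 10% FBS, were used for cytotoxicity testing by MTT dye reduction; the text gives no further cytotoxicity conditions. The parallel antiviral assay exposed the same cells to compound at final <10 μM for 72 h.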

[1] = Rat IV and PO pharmacokinetic studies; conditions: for clearance / AUC(0-t): male, Sprague-Dawley, in vivo; for clearance: iv, 1 mg/kg, CL; for clearance / CL, iv: iv dosing at 1 mg/kg; for AUC(0-t): po, 5 mg/kg
Description: Rat Pharmacokinetic Studies: For the IV and PO pharmacokinetic studies of compounds in rats, the compound was dissolved in PEG-400/ethanol (90/10) as a solution. Rat. Male Sprague-Dawley rats (300-350 g, Hilltop Lab Animals, Inc., Scottdale, Pa.) with cannulas implanted in the jugular vein were used. The rats were fasted overnight in the PO pharmacokinetic studies. Blood samples of 0.3 ml were collected from the jugular vein in EDTA-containing microtainer tubes (Becton Dickinson, Franklin Lakes, N. J.), and centrifuged to separate plasma. In the IV study, the test compound was delivered at 1 mg/kg as a bolus over 0.5 min (n=3). […] Quantitation of Compounds in Plasma. […] The resulting supernates were separated from the precipitated proteins by centrifugation for 10 minutes and transferred to autosampler vials. Samples were either prepared manually, or with the use of the Tomtec automated liquid handler. An aliquot of 5 μL was injected for analysis. The HPLC system consisted of two Shimadzu LC10AD pumps (Columbia, Md.), a Shimadzu SIL-HTC autosampler (Columbia, Md.), and a Hewlett Packard Series 1100 column compartment (Palo Alto, Calif.). The column was a YMC Pro C18 (2.0×50 mm, 3 μm particles, Waters Co., Milford, Mass.), maintained at 60° C. and a flow rate of 0.3 ml/min. The mobile phase consisted of 10 mM ammonium formate and 0.1% formic acid in water (A) and 100% 10 mM ammonium formate and 0.1% formic acid in methanol (B). […] The mobile phase was then returned to initial conditions and the column re-equilibrated for 1 minute. Total analysis time was 4 minutes. The HPLC was interfaced to a Micromass Quattro LC. Ultra high purity nitrogen was used as the nebulizing and desolvation gas at flow rates of 100 L/hr for nebulization and 1100 L/hr for desolvation. The desolvation temperature was 300° C. and the source temperature was 150° C. Data acquisition utilized selected reaction monitoring (SRM). Ions representing the (M+H)^+ species for the compound and the internal standard were selected in MS 1 and collisionally dissociated with argon at a pressure of 2×10^−3 torr to form specific product ions which were subsequently monitored by MS2.
(§1) For accuracy, the determined measure of viral inhibition is an EC50; but the minimum plasma concentrations which should be maintained in a patient is generally believed to be at least four or five fold higher. […] Lower is better. • 4) Estimating potential exposure in man by measuring parameters such as AUC and rate of clearance by oral and iv dosing in rats. High exposure and low clearance was desired.
The rat model is an initial model used to assess potential for exposure in man.

[2] = Metabolic stability in pooled human liver microsomes (HLM); conditions: pooled human liver microsomes, 3 μM drug; Low/Intermediate/High
Description: Metabolic Stability Studies of compounds in Liver Microsomes. The metabolic stability of compounds were investigated in pooled liver microsomes from humans. The human liver microsomes were obtained from BD Gentest (Lot #16, Woburn, Mass.) with a protein concentration of 20 mg/ml and a total cytochrome P450 (CYP) concentration of 0.55 nmol/mg protein. A stock solution of drug was prepared in acetonitrile at 1 mM. […] The incubation media consisted of potassium phosphate buffer (0.1 M, pH 7.4), liver microsomes (final concentration 0.9 mg/ml), magnesium chloride (0.033 mM), and a NADPH-regenerating system. […] The test compound was pre-incubated in the media for 2 min. The reaction was initiated by the addition of the cofactors. The incubation was carried out at 37° C. for 10 min. The reaction was terminated by drawing an aliquot of 100 μL from the incubation and adding into 200 μL of acetonitrile containing a reference compound as an […] analytical standard. Following vortex-mixing and centrifugation, an aliquot of 10 μL of the supernatant was analyzed by LC/MS.
GUIDELINES can be used to categorized test substances as low, intermediate or highly cleared compounds.
as §1
The stability of compounds were also evaluated to determine metabolic stability when incubated in in vitro preparations of human liver microsomes (HLM). This is one commonly used predictive system for evaluating the potential for human metabolism and projecting clearance rates in man. Compounds with low clearance rates were most desireable.

[3] = Human immunodeficiency virus 1, HeLa-CD4/CCR5, read-out: EC50 Group from TABLE 1, HeLa CD4 CCR5 cells, single-round infectious luciferase reporter virus
[4] = Human immunodeficiency virus 1, HeLa-CD4/CCR5, read-out: EC50 category, HIV-1 single-round reporter virus assay, category 1/2/3 per Table A1 key
[5] = AUC 24 h, oral dosing at 5 mg/kg
[6] = Human immunodeficiency virus 1, HeLa-CD4/CCR5, read-out: EC50 Group from Table 1, Table 2-1, HeLa CD4 CCR5 cells, single-round luciferase reporter virus

Compound	EC50 (HIV-1; [3])	EC50 (HIV-1; [4])	CC50 > 100 uM (HeLa cells)	clearance [1]	AUC(0-t) [1, 5]	HLM predicted human clearance class [2]	CL, iv [1]	AUC(0-t) [1]	EC50 (HIV-1; [6])	AUC 24 h ([1]; oral dosing at 5 mg/kg)
COc1cnc(-c2cnccn2)c2[nH]cc(C(=O)C(=O)N3CCN(C(=O)c4ccccn4)CC3)c12 [Example 102, 1-picolinoyl-4-[(4-methoxy-7-(pyrazin-2-yl)-6-azaindol-3-yl)-oxoacetyl]piperazine]	< 1000 nM	0.2 to 1000 nM	Yes	12 ± 5.5 mL/min/kg	6900 ± 1300 ng·h/mL	Low (0-0.100)				
O=C(C(=O)N1CCN(C(=O)c2ccccc2)CC1)c1c[nH]c2c(-c3cnco3)ncc(F)c12 [Example 145]	< 1000 nM	< 0.2 nM			12000 ± 3800 ng·h/mL		1.4 ± 0.29 mL/min/kg			
O=C(C(=O)N1CCN(C(=O)c2ccccc2)CC1)c1c[nH]c2c(-n3ccnn3)ncc(F)c12 [Example 216]	< 1000 nM	< 0.2 nM			32000 ± 12000 ng·h/mL	Low (0-0.100)				
Cc1ncn(-c2ncc(F)c3c(C(=O)C(=O)N4CCN(C(=O)c5ccccc5)CC4)c[nH]c23)n1 [Example 306]	< 1000 nM	< 0.2 nM		0.39 ± 0.07 mL/min/kg	160000 ± 11000 ng·h/mL	Low (0-0.100)				
COc1cnc(-n2cnc(C)n2)c2[nH]cc(C(=O)C(=O)N3CCN(C(=O)c4ccccc4)CC3)c12 [Example 316]	< 1000 nM	< 0.2 nM						52000 ± 12000 ng·h/mL		
COc1cnc(-c2ccco2)c2[nH]cc(C(=O)C(=O)N3CCN(C(=O)c4ccccc4)CC3)c12 [Example 73, 1-(benzoyl)-4-[(4-methoxy-7-(furan-2-yl)-6-azaindol-3-yl)-oxoacetyl]piperazine]	< 1000 nM	< 0.2 nM	Yes			Intermediate (0.101-0.200)				
Cc1ncn(-c2ncc(F)c3c(C(=O)C(=O)N4CCN(C(=O)c5ccccc5)[C@H](C)C4)c[nH]c23)n1 [Example 315]		< 0.2 nM	Yes			Low (0-0.100)			< 1000 nM	
CCc1ncn(-c2ncc(OC)c3c(C(=O)C(=O)N4CCN(C(=O)c5ccccc5)CC4)c[nH]c23)n1 [Example 321]	< 1000 nM	< 0.2 nM	Yes			Low (0-0.100)				
COc1cnc(-n2ccnn2)c2[nH]cc(C(=O)C(=O)N3CCN(C(=O)c4ccccc4)[C@H](C)C3)c12 [Example 255, (R)-1-benzoyl-2-methyl-4-[(4-methoxy-7-(1,2,3-triazol-1-yl)-6-azaindol-3-yl)-oxoacetyl]piperazine]		< 0.2 nM	Yes			Intermediate (0.101-0.200)			< 1000 nM	
C[C@@H]1CN(C(=O)C(=O)c2c[nH]c3c(-n4ccnn4)ncc(F)c23)CCN1C(=O)c1ccccc1 [Example 314]		< 0.2 nM	Yes			Low (0-0.100)			< 1000 nM	
O=C(C(=O)N1CCN(C(=O)c2ccccc2)CC1)c1c[nH]c2c(-c3ncco3)ncc(F)c12 [Example 140]	< 1000 nM	0.2 to 1000 nM	Yes			Intermediate (0.101-0.200)				
O=C(C(=O)N1CCN(C(=O)c2ccccc2)CC1)c1c[nH]c2c(-c3ncon3)ncc(F)c12 [Example 146]	< 1000 nM	0.2 to 1000 nM	Yes			Intermediate (0.101-0.200)				
CCc1ccn(-c2ncc(OC)c3c(C(=O)C(=O)N4CCN(C(=O)c5ccccc5)[C@H](C)C4)c[nH]c23)n1 [Example 230, (R)-1-benzoyl-2-methyl-4-[(4-methoxy-7-(3-ethyl-pyrazol-1-yl)-6-azaindol-3-yl)-oxoacetyl]piperazine]		< 0.2 nM	Yes			Intermediate (0.101-0.200)			< 1000 nM	
COc1cnc(-n2ccc(N)n2)c2[nH]cc(C(=O)C(=O)N3CCN(C(=O)c4ccccc4)CC3)c12 [Example 251, 1-benzoyl-4-[(4-methoxy-7-(3-amino-pyrazol-1-yl)-6-azaindol-3-yl)-oxoacetyl]piperazine]	< 1000 nM	< 0.2 nM	Yes			Low (0-0.100)				
COc1cnc(-c2cnc(NC(C)=O)s2)c2[nH]cc(C(=O)C(=O)N3CCN(C(=O)c4ccccc4)CC3)c12 [Example 78, 1-benzoyl-4-[(4-methoxy-7-(2-acetylamino-thiazol-5-yl)-6-azaindol-3-yl)-oxoacetyl]piperazine]	< 1000 nM	0.2 to 1000 nM	Yes			Intermediate (0.101-0.200)				
CCNC(=O)c1ncn(-c2ncc(OC)c3c(C(=O)C(=O)N4CCN(C(=O)c5ccccc5)CC4)c[nH]c23)n1 [Example 273, 1-benzoyl-4-[(4-methoxy-7-(3-ethylaminocarbonyl-1,2,4-triazol-1-yl)-6-azaindol-3-yl)-oxoacetyl]piperazine]	< 1000 nM	< 0.2 nM	Yes			Low (0-0.100)				
Nc1ncn(-c2ncc(F)c3c(C(=O)C(=O)N4CCN(C(=O)c5ccccc5)CC4)c[nH]c23)n1 [Example 313]	< 1000 nM	< 0.2 nM	Yes			Low (0-0.100)				
COCc1ncn(-c2ncc(OC)c3c(C(=O)C(=O)N4CCN(C(=O)c5ccccc5)[C@H](C)C4)c[nH]c23)n1 [Example 324]		< 0.2 nM	Yes			Low (0-0.100)			< 1000 nM	
COc1ncc(-c2nccc3c(C(=O)C(=O)N4CCN(C(=O)c5ccccc5)C[C@H]4C)c[nH]c23)c(OC)n1 [Example 12, 1-benzoyl-3-®-methyl-4-[(7-(2,4-dimethoxy-pyrimidin-5-yl)-6-azaindol-3-yl)-oxoacetyl]piperazine]							11.9 ± 1.8 mL/min/kg			4700 ± 1100 ng·h/mL
Cc1ccc(-c2nccc3c(C(=O)C(=O)N4CCN(C(=O)c5ccccc5)C[C@H]4C)c[nH]c23)cc1N [Example 3, 1-benzoyl-3-®-methyl-4-[(7-(3-amino-4-methylphenyl)-6-azaindol-3-yl)-oxoacetyl] piperazine]							1.3 ± 4.0 mL/min/kg			6300 ± 2700 ng·h/mL
